Experimental findings from patent US7282503B2 (priority 2002, dated 2007) are described below.

One assay deals with Phytophthora infestans. Type of assay: in vivo. The settings on record: individual active compound, control 90% infection.
In another assay the test system is Plasmopara viticola. The assay can be described thus: Activity against peronospora of vines caused by Plasmopara viticola (protective spray, potted vines). Type of assay: in vivo, Plasmopara viticola on vines cultivar Müller-Thurgau. The settings on record: individual active compound, control 88% infection. On the procedure: The active compounds, separately or together, were prepared as a stock solution with 0.25% by weight of active compound in acetone or DMSO. 1% by weight of the emulsifier Uniperol® EL (wetting agent having emulsifying and dispersing action based on ethoxylated alkylphenols) was added to this solution, and the solution was diluted with water to the desired concentration.
Evaluation is carried out by determining the infected leaf areas as a percentage. These percentages are converted into efficacies. The efficacy (W) is calculated as follows using Abbot's formula: W=(1−α/β)·100 α corresponds to the fungal infection of the treated plants in % and β corresponds to the fungal infection of the untreated (control) plants in % An efficacy of 0 means that the infection level of the treated plants corresponds to that of the untreated control plants; an efficacy of 100 means that the treated plants were not infected. The expected efficacies of the mixtures of the active compounds are determined using Colby's formula [R. S. Colby, Weeds 15, 20-22 (1967)] and compared with the observed efficacies. Colby's formula: E=x+y−x·y/100 […]
E expected efficacy, expressed as a % of the untreated control, when using the mixture of the active compounds A and B at the concentrations a and b x efficacy, expressed as a % of the untreated control, when using active compound A at a concentration a y efficacy, expressed as a % of the untreated control, when using active compound B at a concentration b Leaves of potted vines of the cultivar “Müller-Thurgau” were sprayed to runoff point with an aqueous suspension having the concentration of active compounds stated below. The next day, the undersides of the leaves were inoculated with an aqueous zoospore suspension of Plasmopara viticola. The vines were then initially placed in a water-vapor-saturated chamber at 24° C. for 48 hours and then in a greenhouse at 20-30° C. for 5 days. After this period of time, the plants were again placed in a moist chamber for 16 hours to promote sporangiophore eruption. The extent to which the infection had developed on the undersides of the leaves was then determined visually.

Read-outs that look alike come from different tables or passages of the source.

`CC1CCN(c2c(-c3c(F)cc(F)cc3F)c(Cl)nc3ncnn23)CC1` [I, 5-chloro-7-(4-methyl-pipiridin-1-yl)-6-(2,4,6-trifluorophenyl)-[1,2,4]triazolo[1,5-a]pyrimidine]: the “Efficacy in % of the untreated control” value in the assay with Phytophthora infestans (3.75 ppm in spray liquid) came out at 0%; in the assay on Phytophthora infestans (7.5 ppm in spray liquid) it was 0%; in the assay with Phytophthora infestans (15 ppm in spray liquid) it was 0%; in the assay on Phytophthora infestans (30 ppm in spray liquid) it was 33%; in the assay on Plasmopara viticola (3.75 ppm in spray liquor) it was 9%; in the assay with Plasmopara viticola (7.5 ppm in spray liquor), 32%.
For the compound `Cc1ccc(-c2c(Cl)nc(C#N)n2S(=O)(=O)N(C)C)cc1` [IIa, cyazofamid], the “Efficacy in % of the untreated control” value in the assay with Phytophthora infestans (0.75 ppm in spray liquid) was determined as 56%; with Phytophthora infestans (1.5 ppm in spray liquid), 67%; in the assay on Phytophthora infestans (3 ppm in spray liquid), 78%; in the assay with Phytophthora infestans (6 ppm in spray liquid), 89%; in the assay on Plasmopara viticola (3 ppm in spray liquor), 72%; in the assay on Plasmopara viticola (6 ppm in spray liquor), 83%.
